The experiment deals with CD2F1 mice, L1210 leukemia ip, survival T/C. The experiment is described as follows: NCI In Vivo Anticancer Drug Screen. Data for tumor model L1210 Leukemia (intraperitoneal) in CD2F1 (CDF1) mice. Conditions: higher = longer survival. In short, it runs like this: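 In this screen, transplantable tumors were grown in mice given either the compound or its vehicle. Results were expressed as the treated measurement relative to the control measurement.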

Where [1] appears, read: endpoint: mean survival time, dose: 100.0 mg/kg/injection, schedule: Q04DX003 (ip), vehicle: saline with Tween-80.
[2] abbreviates: endpoint: mean survival time, dose: 200.0 mg/kg/injection, schedule: Q04DX003 (ip), vehicle: saline with Tween-80.
Setting [3] is: endpoint: mean survival time, dose: 100.0 mg/kg/injection, schedule: Q01DX009 (ip), vehicle: saline with Tween-80.
Setting [4] is: endpoint: mean survival time, dose: 200.0 mg/kg/injection, schedule: Q01DX009 (ip), vehicle: saline with Tween-80.
Where [5] appears, read: endpoint: mean survival time, dose: 400.0 mg/kg/injection, schedule: Q01DX009 (ip), vehicle: saline with Tween-80.
The mark [6] stands for this setting: endpoint: mean survival time, dose: 50.0 mg/kg/injection, schedule: Q01DX009 (ip), vehicle: saline with Tween-80.
Where [7] appears, read: endpoint: mean survival time, dose: 100.0 mg/kg/injection, schedule: Q01DX001 (ip), vehicle: saline with Tween-80.
Where [8] appears, read: endpoint: mean survival time, dose: 200.0 mg/kg/injection, schedule: Q01DX001 (ip), vehicle: saline with Tween-80.
[9] abbreviates: endpoint: mean survival time, dose: 400.0 mg/kg/injection, schedule: Q01DX001 (ip), vehicle: saline with Tween-80.

Values joined by “and” are separate entries in the source; they are usually repeats but may differ in a detail not shown here. Equal values may be shown once. Toxic doses and inconclusive results are not listed.

This passage reports T/C results from PubChem BioAssay AID256 (DTP/NCI, 2004).

For the molecule `O=C(OC1(c2c(F)c(F)c(F)c(F)c2F)C2C=CC1CC2)c1ccc([N+](=O)[O-])cc1` (centres undefined), the T/C by setting is: (endpoint: mean survival time, dose: 50.0 mg/kg/injection, schedule: Q04DX002 (ip), vehicle: saline with Tween-80) 102 % of control; (endpoint: mean survival time, dose: 100.0 mg/kg/injection, schedule: Q04DX002 (ip), vehicle: saline with Tween-80) 105 % of control; (endpoint: mean survival time, dose: 200.0 mg/kg/injection, schedule: Q04DX002 (ip), vehicle: saline with Tween-80) 98 % of control; (endpoint: mean survival time, dose: 400.0 mg/kg/injection, schedule: Q04DX002 (ip), vehicle: saline with Tween-80) 90 % of control.
`Cc1ccc(C)c(NC(=O)c2ccc(Cl)cc2)c1`: the T/C was 97 % of control under setting [1]; 97 % of control under setting [2]; 92 % of control (endpoint: mean survival time, dose: 400.0 mg/kg/injection, schedule: Q04DX003 (ip), vehicle: saline with Tween-80).
In the case of `COc1ccc(-c2nc3ccccc3nc2-c2ccc(OC)cc2)cc1`, the T/C was 94 % of control under setting [1] and 94 % of control under setting [2].
As for `O=C(COc1ccc(Cl)c(Cl)c1)NCCc1ccccn1`, the T/C under setting [3] is 95 % of control, the T/C under setting [4] was 97 % of control and the T/C under setting [5] was 95 % of control.
With `COc1cccc2c1C(=N)c1c(O)c3c(c(O)c1C2=O)C[C@@](O)(C(C)=O)C[C@@H]3OC1CC(N)C(O)C(C)O1` (some centres undefined), the T/C was 121 % of control and 108 % of control (endpoint: mean survival time, dose: 0.5 mg/kg/injection, schedule: Q01DX009 (ip), vehicle: saline); 124 % of control (endpoint: mean survival time, dose: 1.0 mg/kg/injection, schedule: Q01DX009 (ip), vehicle: saline); 113 % of control and 122 % of control (endpoint: mean survival time, dose: 2.0 mg/kg/injection, schedule: Q01DX009 (ip), vehicle: saline); 114 % of control and 119 % of control (endpoint: mean survival time, dose: 4.0 mg/kg/injection, schedule: Q01DX009 (ip), vehicle: saline); 101 % of control (endpoint: mean survival time, dose: 8.0 mg/kg/injection, schedule: Q01DX009 (ip), vehicle: saline).
Take `CC(C)(C)[Si](OP(=O)(O[Si](c1ccccc1)(c1ccccc1)C(C)(C)C)N(CCCl)CCCl)(c1ccccc1)c1ccccc1`: the T/C (endpoint: mean survival time, dose: 15.63 mg/kg/injection, schedule: Q01DX001 (ip), vehicle: distilled water + Tween-80) is 101 % of control; the T/C (endpoint: mean survival time, dose: 31.25 mg/kg/injection, schedule: Q01DX001 (ip), vehicle: distilled water + Tween-80) is 95 % of control; the T/C (endpoint: mean survival time, dose: 62.5 mg/kg/injection, schedule: Q01DX001 (ip), vehicle: distilled water + Tween-80) is 101 % of control; the T/C (endpoint: mean survival time, dose: 125.0 mg/kg/injection, schedule: Q01DX001 (ip), vehicle: distilled water + Tween-80) was 98 % of control; the T/C (endpoint: mean survival time, dose: 250.0 mg/kg/injection, schedule: Q01DX001 (ip), vehicle: distilled water + Tween-80) was 92 % of control; the T/C (endpoint: mean survival time, dose: 500.0 mg/kg/injection, schedule: Q01DX001 (ip), vehicle: distilled water + Tween-80) was 103 % of control.
Regarding `Nc1ccccc1SC(CC(=O)c1ccccc1)c1ccc2c(c1)OCO2` (centres undefined), the T/C by setting is: under setting [3], 95 % of control; under setting [4], 93 % of control; under setting [5], 100 % of control.
Take `c1ccc(N/N=C(/N=Nc2ccc(-c3ccc(N=N/C(=N/Nc4ccccc4)c4ccccc4)cc3)cc2)c2ccccc2)cc1`: the T/C is 97 % of control under setting [6], 97 % of control under setting [3] and 102 % of control under setting [4].
With `CSc1nc(NC2OCC(O)C(O)C2O)c(Br)c(=O)n1C` (centres undefined), the T/C runs as follows: (endpoint: median survival time, dose: 12.5 mg/kg/injection, schedule: Q01DX005 (ip), vehicle: saline with Tween-80) 98 % of control; (endpoint: median survival time, dose: 25.0 mg/kg/injection, schedule: Q01DX005 (ip), vehicle: saline with Tween-80) 100 % of control; (endpoint: median survival time, dose: 50.0 mg/kg/injection, schedule: Q01DX005 (ip), vehicle: saline with Tween-80) 101 % of control; (endpoint: median survival time, dose: 100.0 mg/kg/injection, schedule: Q01DX005 (ip), vehicle: saline with Tween-80) 102 % of control; (endpoint: median survival time, dose: 200.0 mg/kg/injection, schedule: Q01DX005 (ip), vehicle: saline with Tween-80) 98 % of control.
Take `c1ccc(Nc2ccc(N=Nc3nc4ccccc4s3)cc2)cc1`: the T/C runs as follows: under setting [7], 93 % of control; under setting [8], 97 % of control; under setting [9], 97 % of control.
Consider `COC1(OC)C(Cl)=C(Cl)C2C1C1(Cl)C(Cl)=C(Cl)C2(Cl)C1(OC)OC` (centres undefined), for which the T/C (endpoint: mean survival time, dose: 100.0 mg/kg/injection, schedule: Q01DX001 (ip), vehicle: saline) was 106 % of control; the T/C (endpoint: mean survival time, dose: 100.0 mg/kg/injection, schedule: Q04DX003 (ip), vehicle: saline) was 105 % of control; the T/C (endpoint: mean survival time, dose: 200.0 mg/kg/injection, schedule: Q01DX001 (ip), vehicle: saline) was 106 % of control; the T/C (endpoint: mean survival time, dose: 200.0 mg/kg/injection, schedule: Q04DX003 (ip), vehicle: saline) was 103 % of control; the T/C (endpoint: mean survival time, dose: 400.0 mg/kg/injection, schedule: Q01DX001 (ip), vehicle: saline) was 102 % of control; the T/C (endpoint: mean survival time, dose: 400.0 mg/kg/injection, schedule: Q04DX003 (ip), vehicle: saline) is 100 % of control.
On to `CN(C)c1ccc(/C=C/c2nc3ccccc3o2)cc1`, for which the T/C runs as follows: (endpoint: mean survival time, dose: 100.0 mg/kg/injection, schedule: Q04DX003 (ip), vehicle: Klucel (hydroxypropylcellulose) (HPC)) 96 % of control; (endpoint: mean survival time, dose: 200.0 mg/kg/injection, schedule: Q04DX003 (ip), vehicle: Klucel (hydroxypropylcellulose) (HPC)) 100 % of control; (endpoint: mean survival time, dose: 400.0 mg/kg/injection, schedule: Q04DX003 (ip), vehicle: Klucel (hydroxypropylcellulose) (HPC)) 102 % of control.
Turning to `Fc1c(F)c(F)c(Oc2c(F)c(F)c(Cl)c(F)c2F)c(F)c1F`, the T/C under setting [7] is 91 % of control, the T/C under setting [8] is 91 % of control and the T/C under setting [9] was 88 % of control.
On to `O=C(Nc1ccc(NC2=NCCN2)cc1)c1ccc(C(=O)Nc2ccc(NC3=NCCN3)cc2)cc1`, for which the T/C (endpoint: mean survival time, dose: 3.0 mg/kg/injection, schedule: Q01DX008 (iv), vehicle: water) is 115 % of control.
As to `Nc1nc2c(ncn2-c2cccc(NC(=O)Nc3ccc(S(=O)(=O)F)c(Cl)c3)c2)c(=O)[nH]1` (tested in a mixture with another compound), the T/C runs as follows: under setting [7], 97 % of control; under setting [8], 95 % of control.
In the case of `O=[N+]([O-])c1ccc2c(c1)C(=Nc1ccc3ccccc3c1)c1ccccc1-2`, the T/C runs as follows: under setting [1], 98 % of control; under setting [2], 86 % of control.
For the molecule `CCCCOC(=O)C=O`, the T/C (endpoint: mean survival time, dose: 12.5 mg/kg/injection, schedule: Q01DX009 (ip), vehicle: saline with Tween-80) was 101 % of control; the T/C (endpoint: mean survival time, dose: 25.0 mg/kg/injection, schedule: Q01DX009 (ip), vehicle: saline with Tween-80) was 105 % of control; the T/C under setting [6] is 99 % of control.
Regarding `Nc1nc(N)c2nc(COc3ccc(C(=O)NC(CCC(=O)O)C(=O)O)cc3)cnc2n1` (centres undefined), the T/C (endpoint: mean survival time, dose: 0.38 mg/kg/injection, schedule: Q01DX009 (ip), vehicle: saline with Tween-80) is 110 % of control; the T/C (endpoint: mean survival time, dose: 0.75 mg/kg/injection, schedule: Q01DX009 (ip), vehicle: saline with Tween-80) is 109 % of control; the T/C (endpoint: mean survival time, dose: 1.5 mg/kg/injection, schedule: Q01DX009 (ip), vehicle: sodium bicarbonate) was 168 % of control; the T/C (endpoint: mean survival time, dose: 3.0 mg/kg/injection, schedule: Q01DX009 (ip), vehicle: saline with Tween-80) is 95 % of control; the T/C (endpoint: mean survival time, dose: 3.0 mg/kg/injection, schedule: Q01DX009 (ip), vehicle: sodium bicarbonate) is 179 % of control; the T/C (endpoint: mean survival time, dose: 6.0 mg/kg/injection, schedule: Q01DX009 (ip), vehicle: sodium bicarbonate) was 157 % of control.
Consider `CNC(=O)Nc1nnnc2ccccc12`, for which the T/C under setting [1] is 95 % of control.
Consider `Cn1c(=O)[nH]c2nc(-c3ccccc3)[nH]c2c1=O`, for which the T/C is 89 % of control (endpoint: mean survival time, dose: 12.5 mg/kg/injection, schedule: Q01DX005 (ip), vehicle: other); 87 % of control (endpoint: mean survival time, dose: 25.0 mg/kg/injection, schedule: Q01DX005 (ip), vehicle: other); 86 % of control (endpoint: mean survival time, dose: 50.0 mg/kg/injection, schedule: Q01DX005 (ip), vehicle: other); 86 % of control (endpoint: mean survival time, dose: 100.0 mg/kg/injection, schedule: Q01DX005 (ip), vehicle: other); 87 % of control (endpoint: mean survival time, dose: 200.0 mg/kg/injection, schedule: Q01DX005 (ip), vehicle: other).
